# Results: patent publication US8592435B2, “Nitrogen-containing six-membered aromatic ring derivatives and pharmaceutical products containing the same” (Daiichi Sankyo Company, Limited, priority 2007, dated 2013)
# Legend:
# [1] = system: mixture of human vascular endothelial cells and fibroblasts; test: Test Example 2: ability to promote angiogenesis (angiogenesis test kit KZ-1000); format: cell-based; details: Homo sapiens, 216 h; Compound Conc. = 3 μM; lumen length, % of control, day 9; read-out: Promotion of angiogenesis (%)
# How it was run: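 Co-culture of human endothelial cells and fibroblasts; compound added on days 1, 4 and 7, CD31 immunostaining on day 9. Lumen length quantified from images and expressed as % of untreated control; 120 used as activity threshold.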
# [2] = Repeated oral administration toxicity in rats; format: in vivo; details: orally administered repeatedly once a day for one week, 150 mg/kg/day
# [3] = system: microsphere (micro-embolism) model; test: Test Example 6: rat microsphere (micro-embolism) model; format: in vivo, Crl:CD(SD) rats; details: rats, oral 1.0 mg/kg once daily for 10 days (Compound 65 also 0.1 mg/kg); 2 weeks after surgery
# Text: According to the method of Ichiro Date et al. [Journal of Neuroscience Research 78; 442-453 (2004)], 8-week-old male Crl:CD(SD) rats were used. Animals were anesthetized with halothane and midline incision was made. Right carotid artery was separated and a thread was looped around the common carotid artery and external carotid artery. The pterygopalatine artery was temporarily clipped with an aneurysm clip. The blood flow through the common carotid artery and external carotid artery was temporarily interrupted and 0.1 mL of a microsphere suspension composed of microspheres dispersed in a 30% sucrose solution (1800 microspheres/0.1 mL) was injected into the common carotid artery. After injection of the suspension, the puncture of the injection needle was filled with instant glue while the blood flow was interrupted. The blood flow was then restored and the surgical wound was sutured. Neurological symptoms were observed the day following the surgery. The animals were assigned to each treated group at random with respect to the measurements of neurological symptoms, the decrease in body weight from the previous day, and the body weight on that day.
# The test compounds used were Example Compound 65, 108, 130, 135 and 137, each of which was administered at a dose of 1.0 mg/kg. Example Compound 65 was administered also at a dose of 0.1 mg/kg. Each compound was orally administered once daily for 10 days starting from the following day of the surgery. Coordinated motor functions were measured 5 times on an accelerated rota-rod (4 to 40 rpm/5 min) 2 weeks after the surgery.
# Specifically, FIGS. 11 to 15 show the effect of different compounds 2 weeks after the microsphere injection (rota-rod test standard parameter). The figures show the results of rota-rod tests 2 weeks after the ischemic event in which each compound was orally administered at 1.0 mg/kg once daily for 10 days (Example Compound 65 was administered at 0.1 mg/kg or 1.0 mg/kg). What is shown in the figures is the total time of the 5 measurements on rota-rod as a standard parameter.
# ***: p<0.0001, Dunnett's multiple range test vs. Vehicle.
# [4] = system: myocardial infarction model (LAD occluded); test: Test Example 5: myocardial infarction model in rats; format: in vivo, Slc:SD rats; details: oral once daily 0.01, 0.1 or 1.0 mg/kg for 28 days, 4 weeks after myocardial infarction
# Method: According to the method of Masakatsu Wakeno et al. [Circulation 114: 1923-1932 (2006)], 10-week-old male Slc:SD rats were anesthetized with pentobarbital and cut open in the chest area. The left anterior descending coronary artery (LAD) was completely occluded to establish a myocardial infarction model. Sham group underwent only thoracic surgical procedure.
# The test compound used was Example Compound 65, which was orally administered once daily at a dose of 0.01 mg/kg, 0.1 mg/kg or 1.0 mg/kg for 28 days starting from the day of establishment of myocardial infarction model (after awakening from anesthesia).
# 4 weeks after establishing myocardial infarction, animals were anesthetized with pentobarbital and monitored for their cardiachemodynamics using a mirror catheter. Subsequently, blood samples were collected from the abdominal aorta, wet lung weight was measured, and plasma BNP levels after arterial blood sampling were measured (RIA).
# FIGS. 7, 8, 9 and 10 show the results of LVEDP, LVdP/dt max, lung weight and plasma […] levels, respectively.
# #: P<0.05, ##: P<0.01 between sham and control by Student's t-test
# *: P<0.05, **: P<0.01: vs control by Dunnett's test
compound,measurement,setting,value
"Cc1nc(OCC(=O)N(C)C2CCN(Cc3ccccc3)CC2)nc(C)c1N [Compound 65, 2-(5-amino-4,6-dimethylpyrimidine-2-yloxy)-N-(1-benzylpiperidine-4-yl)-N-methylacetamide]",activity at 3 µM,[1],170%
same,toxicity,[2],did not exhibit toxicity
same,"coordinated motor functions, total time of 5 measurements on rota-rod",[3],highly effective in ameliorating ischemic cerebral infarction
same,end-diastolic pressure (LVEDP),[4],suppressed
same,maximum left ventricular contraction and diastolic velocity (LVdP/dt max),[4],suppressed the decrease
same,wet lung weight,[4],suppressed
same,plasma BNP levels,[4]; RIA,suppressed the increase
